Measured values published in ChEMBL document CHEMBL1201862, “PubChem BioAssay data set” (2004).
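Test compounds were applied to cells in 96-well plates for 48 hours at 5 doses. GI50 is the concentration that inhibits growth by half.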 Calls of active or inactive are those of the source. Cut-off read from the data, not from the text of the source: active = GI50 up to about 1.1 µM and inactive = higher.

Assays:
Assay in all cases: NCI anticancer screen, dose series, 48 h
[1] = tested on: A549
[2] = tested on: ACHN
[3] = tested on: K562
[4] = tested on: KM12
[5] = tested on: MDA-N
[6] = tested on: MOLT-4
[7] = tested on: NCI-H460
[8] = tested on: NCI/ADR-RES
[9] = tested on: OVCAR-3
[10] = tested on: OVCAR-5
[11] = tested on: SF-295
[12] = tested on: SK-MEL-28
[13] = tested on: SK-MEL-5
[14] = tested on: SK-OV-3
[15] = tested on: SNB-75
[16] = tested on: SW-620
[17] = tested on: UACC-257
[18] = tested on: Malme-3M
[19] = tested on: NCI-H226
[20] = tested on: NCI-H522

Structure (SMILES) | GI50 [1] | GI50 [2] | GI50 [3] | GI50 [4] | GI50 [5] | GI50 [6] | GI50 [7] | GI50 [8] | GI50 [9] | GI50 [10] | GI50 [11] | GI50 [12] | GI50 [13] | GI50 [14] | GI50 [15] | GI50 [16] | GI50 [17] | GI50 [18] | GI50 [19] | GI50 [20]
Oc1c(Br)cc(/C=C/c2ccnc(/C=C/c3cc(Br)c(O)c(Br)c3)c2)cc1Br | 23.6 µM (inactive) | 28.4 µM (inactive) | 24.2 µM (inactive) | 19.1 µM (inactive) | 33.5 µM (inactive) | 21 µM (inactive) | 12.6 µM (inactive) | 31.6 µM (inactive) | 19.7 µM (inactive) | 25.5 µM (inactive) | 27.5 µM (inactive) | 39 µM (inactive) | 19.1 µM (inactive) | 34.2 µM (inactive) | 19.1 µM (inactive) | 35.6 µM (inactive) | 26.2 µM (inactive) |  |  | 
CCOC(=O)C1=c2[nH]c3cccc4cccc(c43)n2C=C(C(C)=O)C1CC(C)=O (centres undefined) | 46.2 µM (inactive) | 80 µM (inactive) | > 100 µM (inactive) | > 100 µM (inactive) | > 100 µM (inactive) | > 100 µM (inactive) | > 100 µM (inactive) | > 100 µM (inactive) | > 100 µM (inactive) | > 100 µM (inactive) | > 100 µM (inactive) | > 100 µM (inactive) | > 100 µM (inactive) | 6.4 µM (inactive) | > 100 µM (inactive) | 40.6 µM (inactive) | > 100 µM (inactive) |  |  | 
COC(=O)C(CCCC1(c2ccccc2)OCCO1)C(C)=O (centres undefined) | > 100 µM (inactive) | 38.1 µM (inactive) | 91.8 µM (inactive) | > 100 µM (inactive) |  | > 100 µM (inactive) | > 100 µM (inactive) |  | > 100 µM (inactive) | > 100 µM (inactive) | > 100 µM (inactive) | > 100 µM (inactive) | 66.4 µM (inactive) | > 100 µM (inactive) | 30.2 µM (inactive) | > 100 µM (inactive) | 90.2 µM (inactive) | > 100 µM (inactive) | 40.9 µM (inactive) | 64 µM (inactive)
Oc1c2cccc1Cc1cccc3c1OCCOCCOCCOCCOc1c(cccc1Cc1cccc(c1O)C3)C2 | > 100 µM (inactive) | > 100 µM (inactive) | > 100 µM (inactive) | > 100 µM (inactive) |  | > 100 µM (inactive) |  | 39.3 µM (inactive) | 0.897 µM (active) | > 100 µM (inactive) | 9.29 µM (inactive) | > 100 µM (inactive) | > 100 µM (inactive) | > 100 µM (inactive) | 22 µM (inactive) | > 100 µM (inactive) | 66.2 µM (inactive) |  | 22.5 µM (inactive) | 18.5 µM (inactive)
COc1ccc(C(=O)C(c2ccc(OC)cc2)C2(O)C(=O)Nc3c(Cl)cc(Cl)cc32)cc1 (centres undefined) | 24.2 µM (inactive) | 22.8 µM (inactive) | 16.6 µM (inactive) | 17.8 µM (inactive) |  | 9.35 µM (inactive) | 20.7 µM (inactive) |  | 22.8 µM (inactive) | 20.1 µM (inactive) | 19.3 µM (inactive) | 22.3 µM (inactive) | 18.5 µM (inactive) | 50.7 µM (inactive) | 22.9 µM (inactive) | 17.6 µM (inactive) | 17.3 µM (inactive) | 15.5 µM (inactive) | 18.4 µM (inactive) | 18.2 µM (inactive)
OC(c1ccccn1)C1CNc2ccccc21 (centres undefined) | > 100 µM (inactive) | > 100 µM (inactive) | > 100 µM (inactive) | > 100 µM (inactive) |  | > 100 µM (inactive) | > 100 µM (inactive) |  | > 100 µM (inactive) | > 100 µM (inactive) | > 100 µM (inactive) | > 100 µM (inactive) | > 100 µM (inactive) | > 100 µM (inactive) | 22.1 µM (inactive) | > 100 µM (inactive) | > 100 µM (inactive) | > 100 µM (inactive) | > 100 µM (inactive) | > 100 µM (inactive)
Cc1ccc(Cc2nn(C)c(=O)n2N)cc1 | > 100 µM (inactive) | > 100 µM (inactive) | > 100 µM (inactive) | > 100 µM (inactive) | > 100 µM (inactive) |  | > 100 µM (inactive) | > 100 µM (inactive) | > 100 µM (inactive) | > 100 µM (inactive) | > 100 µM (inactive) | > 100 µM (inactive) | > 100 µM (inactive) | > 100 µM (inactive) |  | > 100 µM (inactive) | > 100 µM (inactive) |  | > 100 µM (inactive) | 
Cc1cc2c(cc1C)[n+]([O-])c(-c1c(Cl)cccc1Cl)c(N)[n+]2[O-] | 30.1 µM (inactive) | 36.5 µM (inactive) | 32 µM (inactive) | 37.2 µM (inactive) |  | 26.2 µM (inactive) | 30.3 µM (inactive) |  | 28.2 µM (inactive) | > 100 µM (inactive) | 42.5 µM (inactive) | 28.2 µM (inactive) | 20.7 µM (inactive) | 66.4 µM (inactive) | > 100 µM (inactive) | 35.1 µM (inactive) | 24.6 µM (inactive) | 31.1 µM (inactive) | 23.9 µM (inactive) | 9.27 µM (inactive)
